Laboratory results: patent publication US20090209577A1, “Novel Triazolopyridine Compounds” (PFIZER INC., priority 2004, published 2009)
Counter-ions that a name gives are not always drawn.

target: T1, human p38 kinase alpha (Homo sapiens, UniProt Q16539); experiment: p38 kinase in vitro assay (PHAS-I / 32P-ATP format or EGFRP / 33P-ATP format); format: biochemical; settings: activated human p38 kinase alpha, 50 μM unlabeled ATP; two assay formats, table does not say which
T1 construct: The coding region of the human p38a cDNA was obtained by PCR-amplification from RNA isolated from the human monocyte cell line THP.1; made in house; host or cells: E. coli DH10B
Description: The ability of compounds to inhibit human p38 kinase alpha was evaluated using two in vitro assay methods. In the first method, activated human p38 kinase alpha phosphorylates a biotinylated substrate, PHAS-I (phosphorylated heat and acid stable protein-insulin inducible), in the presence of gamma ^32P-ATP (^32P-ATP). PHAS-I was biotinylated prior to the assay and provides a means of capturing the substrate, which is phosphorylated during the assay. p38 Kinase was activated by MKK6. Compounds were tested in 10 fold serial dilutions over the range of 100 μM to 0.001 μM using 1% DMSO. Each concentration of inhibitor was tested in triplicate.
All reactions were carried out in 96 well polypropylene plates. Each reaction well contained 25 mM HEPES pH 7.5, 10 mM magnesium acetate and 50 μM unlabeled ATP. Activation of p38 was required to achieve sufficient signal in the assay. Biotinylated PHAS-1 was used at 1-2 μg per 50 μl reaction volume, with a final concentration of 1.5 μM. Activated human p38 kinase alpha was used at 1 μg per 50 μl reaction volume representing a final concentration of 0.3 μM. Gamma ^32P-ATP was used to follow the phosphorylation of PHAS-1. ^32P-ATP has a specific activity of 3000 Ci/mmol and was used at 1.2 μCi per 50 μl reaction volume. The reaction proceeded either for one hour or overnight at 30° C.
Following incubation, 20 μl of reaction mixture was transferred to a high capacity streptavidin coated filter plate (SAM-streptavidin-matrix, Promega) prewetted with phosphate buffered saline. The transferred reaction mix was allowed to contact the streptavidin membrane of the Promega plate for 1-2 minutes. Following capture of biotinylated PHAS-1 with ^32P incorporated, each well was washed to remove unincorporated ^32P-ATP three times with 2M NaCl, three washes of 2M NaCl with 1% phosphoric, three washes of distilled water and finally a single wash of 95% ethanol. Filter plates were air-dried and 20 μl of scintillant was added. The plates were sealed and counted.
A second assay format was also employed that is based on p38 kinase alpha induced phosphorylation of EGFRP (epidermal growth factor receptor peptide, a 21 mer) in the presence ^33P-ATP. Compounds were tested in 10 fold serial dilutions over the range of 100 μM to 0.001 μM in 1% DMSO. Each concentration of inhibitor was tested in triplicate. Compounds were evaluated in 50 μl reaction volumes in the presence of 25 mM Hepes pH 7.5, 10 mM magnesium acetate, 4% glycerol, 0.4% bovine serum albumin, 0.4 mM DTT, 50 μM unlabeled ATP, 25 μg EGFRP (200 μM), and 0.05 μCi ^33P-ATP. Reactions were initiated by addition of 0.09 μg of activated, purified human GST-p38 kinase alpha. Activation was carried out using GST-MKK6 (5:1, p38:MKK6) for one hour at 30° C. in the presence of 50 μM ATP. Following incubation for 60 minutes at room temperature, the reaction was stopped by addition of 150 μl of AG 1×8 resin in 900 mM sodium formate buffer, pH 3.0 (1 volume resin to 2 volumes buffer). The mixture was mixed three times with pipetting and the resin was allowed to settle. A total of 50 μl of clarified solution head volume was transferred from the reaction wells to Microlite-2 plates. 150 μl of Microscint 40 was then added to each well of the Microlite plate, and the plate was sealed, mixed, and counted.
The above protocol assays were used to determine the IC50 values for compounds in Examples 1-71 above.

T1 sequence (Q16539 whole entry): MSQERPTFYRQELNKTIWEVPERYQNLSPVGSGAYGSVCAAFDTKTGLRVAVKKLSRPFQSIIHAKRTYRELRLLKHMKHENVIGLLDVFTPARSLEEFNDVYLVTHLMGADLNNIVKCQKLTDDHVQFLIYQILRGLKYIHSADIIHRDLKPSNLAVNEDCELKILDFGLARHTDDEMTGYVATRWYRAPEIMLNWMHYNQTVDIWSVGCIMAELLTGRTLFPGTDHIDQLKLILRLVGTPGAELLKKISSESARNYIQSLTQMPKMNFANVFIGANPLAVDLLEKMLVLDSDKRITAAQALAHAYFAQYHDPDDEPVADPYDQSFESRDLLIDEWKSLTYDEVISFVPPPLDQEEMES

Structure (SMILES) | IC50
COC(=O)c1ccc(C)c(-c2nnc3ccc(Br)cn23)c1 [41 (step 2), methyl 3-(6-bromo[1,2,4]triazolo[4,3-a]pyridin-3-yl)-4-methylbenzoate] | 12900 nM
CC(C)c1nnc2n1CC(Cc1ccc(F)cc1F)CC2 (centres unmarked) [Example 8, 6-(2,4-difluorobenzyl)-3-isopropyl-5,6,7,8-tetrahydro[1,2,4]triazolo[4,3-a]pyridine hydrochloride] | 5590 nM
CC(C)C(=O)c1ccc2nnc(C(C)C)n2c1 [Example 71, 1-(3-isopropyl[1,2,4]triazolo[4,3-a]pyridin-6-yl)-2-methylpropan-1-one] | 99100 nM
COC(=O)c1cccc(-c2nnc3ccc(C(O)c4ccc(F)cc4F)cn23)c1 (centres unmarked) [Example 65, methyl 3-{6-[(2,4-difluorophenyl)(hydroxy)methyl][1,2,4]triazolo[4,3-a]pyridin-3-yl}benzoate] | 1130 nM
NC(=O)c1ccc(-c2nnc3ccc(Cc4ccc(F)cc4F)cn23)cc1 [Example 27, 4-[6-(2,4-difluorobenzyl)[1,2,4]triazolo[4,3-a]pyridin-3-yl]benzamide] | 3020 nM
CC(C)(C)c1nnc2ccc(Sc3c(Cl)cccc3Cl)cn12 [Example 63, 3-tert-butyl-6-[(2,6-dichlorophenyl)thio][1,2,4]triazolo[4,3-a]pyridine] | 54.6 nM
CC(C)(C)c1nnc2ccc(C(=O)c3ccc(F)cc3F)cn12 [Example 15, (3-tert-butyl[1,2,4]triazolo[4,3-a]pyridin-6-yl)(2,4-difluorophenyl)methanone] | 1050 nM
Cc1ccc(C(=O)NCCO)cc1-c1nnc2ccc(Sc3ccc(F)cc3F)cn12 [Example 43, 3-{6-[(2,4-difluorophenyl)thio][1,2,4]triazolo[4,3-a]pyridin-3-yl}-N-(2-hydroxyethyl)-4-methylbenzamide] | 20.5 nM
CC(C)c1nnc2ccc(-c3cnn(Cc4ccccc4)c3)cn12 [Example 7, 6-(1-benzyl-1H-pyrazol-4-yl)-3-isopropyl[1,2,4]triazolo[4,3-a]pyridine] | > 100000 nM
Cc1ccc(C(N)=O)cc1-c1nnc2n1CC(CCc1ccc(F)cc1F)CC2 (racemic) [Example 20, racemic 3-{6-[2-(2,4-difluorophenyl)ethyl]-5,6,7,8-tetrahydro[1,2,4]triazolo[4,3-a]pyridin-3-yl}-4-methylbenzamide] | 1270 nM
CCCCSc1ccc2nnc(C(C)C)n2c1 [Example 37, 6-(butylthio)-3-isopropyl[1,2,4]triazolo[4,3-a]pyridine hydrochloride] | > 100000 nM
O=C(CO)N1CCC(c2nnc3ccc(Sc4ccc(F)cc4F)cn23)CC1 [Example 44, 2-(4-{6-[(2,4-difluorophenyl)thio][1,2,4]triazolo[4,3-a]pyridin-3-yl}piperidin-1-yl)-2-oxoethanol hydrochloride] | 212 nM
COC(=O)c1cccc(-c2nnc3ccc(C(=O)c4ccc(F)cc4F)cn23)c1 [Example 29, methyl 3-[6-(2,4-difluorobenzoyl)[1,2,4]triazolo[4,3-a]pyridin-3-yl]benzoate] | 14000 nM
Cc1ccc(C(=O)NCC(N)=O)cc1-c1nnc2ccc(Sc3ccc(F)cc3F)cn12 [Example 42, N-(3-{6-[(2,4-difluorophenyl)thio][1,2,4]triazolo[4,3-a]pyridin-3-yl}-4-methylbenzoyl)glycinamide] | 46.5 nM

Other lines, results leading:

IC50 | Structure (SMILES)
141 nM | Cc1cc(Br)ccc1-c1nnc2ccc(Sc3ccc(F)cc3F)cn12 [45 (step 2), 3 (4-bromo-2-methylphenyl)-6-[(2,4-difluorophenyl)thio][1,2,4]triazolo[4,3-a]pyridine hydrochloride]
85 nM | CC(C)c1nnc2ccc(CCc3ccc(F)cc3F)cn12 [Example 2, 6-[2-(2,4-difluorophenyl)ethyl]-3-isopropyl[1,2,4]triazolo[4,3-a]pyridine]
9680 nM | CC(C)c1nnc2ccc([S+]([O-])c3ccc(F)cc3F)cn12 (centres unmarked) [Example 60, 6-[(2,4-difluorophenyl)sulfinyl]-3-isopropyl[1,2,4]triazolo[4,3-a]pyridine]
5.3 nM | OCC(O)c1ccc(-c2nnc3ccc(Sc4ccc(F)cc4F)cn23)cc1 (racemic) [Example 31, racemic-1-(4-{6-[(2,4-difluorophenyl)thio][1,2,4]triazolo[4,3-a]pyridin-3-yl}phenyl)ethane-1,2-diol hydrochloride]
293 nM | CNC(=O)c1ccc(-c2nnc3ccc(Sc4ccc(F)cc4F)cn23)cc1 [Example 24, 4-{6-[(2,4-difluorophenyl)thio][1,2,4]triazolo[4,3-a]pyridin-3-yl}-N-methylbenzamide]
535 nM | CC(C)c1nnc2ccc(/C=C\c3ccc(F)cc3F)cn12 [Example 1, 6-[(Z)-2-(2,4-difluorophenyl)vinyl]-3-isopropyl[1,2,4]triazolo[4,3-a]pyridine]
39.9 nM | CNC(=O)c1ccc(C)c(-c2nnc3ccc(Sc4ccc(F)cc4F)cn23)c1 [Example 49, 3-{6-[(2,4-difluorophenyl)thio][1,2,4]triazolo[4,3-a]pyridin-3-yl}-N,4-dimethylbenzamide]
698 nM | CC1(C)OCC(CC(C)(C)c2nnc3ccc(Sc4ccc(F)cc4F)cn23)O1 (centres unmarked) [33 (step 3), 6-[(2,4-difluorophenyl)thio]-3-[2-(2,2-dimethyl-1,3-dioxolan-4-yl)-1,1-dimethylethyl][1,2,4]triazolo[4,3-a]pyridine hydrochloride]
16.3 nM | C=CCC(C)(C)c1nnc2ccc(Sc3ccc(F)cc3F)cn12 [33 (step 2), 6-[(2,4-difluorophenyl)thio]-3-(1,1-dimethylbut-3-enyl)[1,2,4]triazolo[4,3-a]pyridine hydrochloride]
5260 nM | CC(C)c1nnc2ccc(Cc3cccc(F)c3)cn12 [Example 68, 6-(3-fluorobenzyl)-3-isopropyl[1,2,4]triazolo[4,3-a]pyridine]
7.2 nM | Fc1ccc(Sc2ccc3nnc(-c4c(F)cccc4F)n3c2)c(F)c1 [Example 47, 3-(2,6-difluorophenyl)-6-[(2,4-difluorophenyl)thio][1,2,4]triazolo[4,3-a]pyridine]
> 100000 nM | CC(C)c1nnc2ccc(Sc3ccc(Br)cc3C(F)(F)F)cn12 [Example 51, 6-{[4-bromo-2-(trifluoromethyl)phenyl]thio}-3-isopropyl[1,2,4]triazolo[4,3-a]pyridine hydrochloride]
1740 nM | CC(C)(CC(O)CO)c1nnc2ccc(Sc3ccc(F)cc3F)cn12 (centres unmarked) [Example 33, 4-{6-[(2,4-difluorophenyl)thio][1,2,4]triazolo[4,3,a]pyridin-3-yl}-4-methylpentane-1,2-diol hydrochloride]
79.3 nM | CC(C)c1nnc2ccc(Sc3ccc(F)cc3F)cn12 [34 (step 1), 6-[(2,4-difluorophenyl)thio]-3-isopropyl[1,2,4]triazolo[4,3-a]pyridine hydrochloride]
16900 nM | CC(C)c1nnc2ccc([C@@H]3C[C@@H]3c3ccc(F)cc3F)cn12 (racemic) [Example 3, Racemic 6-[2-(2,4-difluorophenyl)cyclopropyl]-3-isopropyl[1,2,4]triazolo[4,3-a]pyridine]
3380 nM | CC(C)c1nnc2cc(Cl)c(Sc3ccc(F)cc3F)c(Cl)n12 [Example 34, 5,7-dichloro-6-[(2,4-difluorophenyl)thio]-3-isopropyl[1,2,4]triazolo[4,3-a]pyridine]
2500 nM | CC(C)c1nnc2ccc(Cc3ccc(F)cc3)cn12 [Example 69, 6-(4-fluorobenzyl)-3-isopropyl[1,2,4]triazolo[4,3-a]pyridine]
106 nM | C=Cc1ccc(-c2nnc3ccc(Sc4ccc(F)cc4F)cn23)c(C)c1 [45 (step 3), 6-[(2,4-difluorophenyl)thio]-3-(2-methyl-4-vinylphenyl)[1,2,4]triazolo[4,3-a]pyridine hydrochloride]
